Measured values reported in ChEMBL document CHEMBL1949659, “The green tea polyphenol (2)-epigallocatechin-3-gallate (EGCG) is not a β-secretase inhibitor” (Bioorg Med Chem Lett, 2012).

Tests used:
Beta-secretase 1 [1] = target: T1, Beta-secretase 1 (Homo sapiens, UniProt P56817)
Beta-secretase 1 [2] = target: T1, Beta-secretase 1; remark: listed apart in the source
Beta-secretase 1 [3] = target: T1, Beta-secretase 1; remark: listed apart in the source
Beta-secretase 1 [4] = target: T1, Beta-secretase 1; assay: Inhibition of recombinant human BACE1 using Eu-CEVNLDAEFK-Qsy7 as substrate by HTRF assay
Beta-secretase 1 [5] = target: T1, Beta-secretase 1; remark: listed apart in the source
CHO = assay: Cytotoxicity against CHO cells transfected with human BACE1 and human APP with Swedish mutation at 1 nM to 10 uM by MTT assay; assay type: cell-based, Cricetulus griseus; settings: chinese hamster, 0.001 µM
Beta-secretase 1 [6] = target: T1, Beta-secretase 1; remark: listed apart in the source
Beta-secretase 1 [7] = target: T1, Beta-secretase 1; remark: listed apart in the source
Beta-secretase 1 [8] = target: T1, Beta-secretase 1; remark: listed apart in the source
Beta-secretase 1 [9] = target: T1, Beta-secretase 1; remark: listed apart in the source
Beta-secretase 1 [10] = target: T1, Beta-secretase 1; remark: listed apart in the source
Beta-secretase 1 [11] = target: T1, Beta-secretase 1; remark: listed apart in the source
Beta-secretase 1 [12] = target: T1, Beta-secretase 1; remark: listed apart in the source
Beta-secretase 1 [13] = target: T1, Beta-secretase 1; remark: listed apart in the source
Mus musculus [14] = assay: Antialzheimer's disease activity in mouse cortex assessed as inhibition of beta-secretase mediated amyloid beta1-42 production at 3 mg/kg; assay type: functional
Mus musculus [15] = assay: Antialzheimer's disease activity in mouse hippocampus assessed as inhibition of beta-secretase mediated amyloid beta1-42 production at 1.5 mg/kg; assay type: functional
Mus musculus [16] = assay: Antialzheimer's disease activity in mouse hippocampus assessed as inhibition of beta-secretase mediated amyloid beta1-42 production at 3 mg/kg; assay type: functional
Mus musculus [17] = assay: Antialzheimer's disease activity in mouse cortex assessed as inhibition of beta-secretase mediated amyloid beta1-42 production at 1.5 mg/kg; assay type: functional

T1 sequence (P56817 whole entry): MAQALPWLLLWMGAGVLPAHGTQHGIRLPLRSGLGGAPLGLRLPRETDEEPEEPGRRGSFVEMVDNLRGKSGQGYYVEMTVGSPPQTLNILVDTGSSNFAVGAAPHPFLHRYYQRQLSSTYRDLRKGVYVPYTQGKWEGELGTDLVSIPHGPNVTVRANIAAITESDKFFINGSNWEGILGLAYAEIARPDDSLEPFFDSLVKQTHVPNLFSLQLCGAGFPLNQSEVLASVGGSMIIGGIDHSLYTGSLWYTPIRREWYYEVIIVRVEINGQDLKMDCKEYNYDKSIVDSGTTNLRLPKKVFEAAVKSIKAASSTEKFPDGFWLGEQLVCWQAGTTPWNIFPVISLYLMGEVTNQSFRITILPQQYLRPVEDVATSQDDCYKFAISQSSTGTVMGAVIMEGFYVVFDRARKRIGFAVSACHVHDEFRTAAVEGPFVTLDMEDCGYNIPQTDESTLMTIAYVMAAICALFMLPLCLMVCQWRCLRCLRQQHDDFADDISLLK

Row | Compound | RFU (Beta-secretase 1 [1]) | RFU (Beta-secretase 1 [2]) | RFU (Beta-secretase 1 [3]) | IC50 (Beta-secretase 1 [4]) [µM] | RFU (Beta-secretase 1 [5]) | Activity (CHO) | RFU (Beta-secretase 1 [6]) | RFU (Beta-secretase 1 [7]) | RFU (Beta-secretase 1 [8]) | RFU (Beta-secretase 1 [9]) | RFU (Beta-secretase 1 [10]) | RFU (Beta-secretase 1 [11]) | RFU (Beta-secretase 1 [12]) | RFU (Beta-secretase 1 [13]) | inhibition in vivo at 3 mg/kg (Mus musculus [14]) [%] | inhibition in vivo at 1.5 mg/kg (Mus musculus [15]) [%] | inhibition in vivo at 3 mg/kg (Mus musculus [16]) [%] | inhibition in vivo at 1.5 mg/kg (Mus musculus [17]) [%]
1 | O=C(Nc1ccc(N(CCO)CCO)cc1)c1cnc2cc(Cl)cc(Cl)c2c1O | 87.4 | 24.9 | 26.2 | 2.27 | 90.1 | Non-toxic | 4.36 | 80.3 | 65.1 | 13.7 | 72 | 39.1 | 87.4 | 77.2 |  |  |  | 
2 | CSc1ccc2c(O)c(C(=O)Nc3ccc(N(CCO)CCO)cc3)cnc2c1 | 99.8 | 21.7 | 26.8 | 2.81 | 99.8 | Non-toxic | 10.5 | 94.8 | 69.4 | 14.2 | 73 | 36.2 | 99.8 | 79 |  |  |  | 
3 | O=C(O[C@@H]1Cc2c(O)cc(O)cc2O[C@@H]1c1cc(O)c(O)c(O)c1)c1cc(O)c(O)c(O)c1 [EPIGALOCATECHIN GALLATE] |  |  |  |  |  | Non-toxic |  |  |  |  |  |  |  |  | 51.2 | 25.5 | 39.8 | 18.6
4 | C[C@@H](NC(=O)c1cc(C(=O)N[C@@H](Cc2ccccc2)[C@H](O)CNC2CC2)cc(N(C)S(C)(=O)=O)c1)c1ccccc1 |  |  |  |  |  | Non-toxic |  |  |  |  |  |  |  |  |  |  |  | 
5 | CSc1cccc2c(O)c(C(=O)Nc3ccc(N(CCO)CCO)cc3)cnc12 | 98.7 | 22.2 | 26.2 | 3.84 | 98.3 | Non-toxic | 6.14 | 81.5 | 63.4 | 20.2 | 67.3 | 34.1 | 97.7 | 73.8 |  |  |  | 
